Source: patent US12171732B2, “Compositions and use of N-chlorotaurine for treatment and prevention of respiratory infections” (priority 2021, dated 2024)
Where two headings read alike, the source gives them in different places.

Experiments:
[1] = tested on: Influenza A/Singapore/Hongkong/2339/2000 (H1N1); type: cell-based, Influenza A virus
[2] = tested on: SARS-CoV-2 hCoV-19/Australia/VIC01/2020; test: Inactivation of SARS-CoV-2 by NCT, plaque titration; type: cell-based; conditions: 1.0% NCT in the presence of Vero cells, 37° C. (FIG. 1B)
Description: FIG. 1B presents inactivation of SARS-Cov-2 (hCoV-19/Australia/VIC01/2020) by NCT. Virus suspension (SARS-CoV-2 h CoV-19/Australia/VIC01/2020) was incubated with NCT or PBS or isopropanol (positive control) for 5 min, 10 min, 20 min, and 60 min at 37° C. and then diluted 1:1 in met/his for inactivation of NCT, followed by plaque titration. Mean values±SD of three independent experiments. Detection limit 3.11 log10 (dotted line).
(§1) Inactivation of SARS-CoV-2 wild type isolates from early 2020 was assessed by incubating stock virus with NCT for indicated time periods at 37° C. and then determining the remaining infectious particles using plaque assay or immunostaining as well as determining virus inactivation via RT-qPCR or TCID50. Exact incubation times of virus with NCT were ensured by adding met/his at the end of the incubation period, which inactivates NCT.
With plaque assay readout, a significant reduction in infectious particles was detected after 15 min of incubation, when incubating SARS-CoV-2 with NCT in a buffered aqueous solution (FIG. 1A). The mild oxidizing activity of the test antiseptic may explain why it took as long as 15 min to reduce infectious particles. In the presence of Vero cells (FIG. 1B) or particularly 5.0% peptone (FIG. 1A), however, a significant reduction of infectious virus particles occurred already after 5 min of incubation with 1.0% NCT. […]

SARS-CoV-2 [3] = test: Treatment of hospitalized COVID-19 patients with NCT solution for inhalation; type: in vivo, human
Description: The effect of an inhalation solution of NCT-Na is tested in patients who suffer from COVID-19 (infection with SARS-CoV-2). The solution consists of 1% NCT sodium in distilled water.

[4] = tested on: SARS-CoV-2, clinical isolate; test: Virus inactivation assay with immunostaining readout (Vero/TMPRSS2/ACE2 cells); type: cell-based; conditions: 1% NCT, 37° C.
Description: (§2) FIG. 1C presents inactivation of SARS-Cov-2 (SARS-CoV-2, clinical isolate) by NCT. Virus suspension (SARS-CoV-2, clinical isolate) was incubated with 1% NCT or PBS for 1 min, 5 min, 7 min, 10 min, 20 min, and 30 min at 37° C. After inactivation of NCT and serial dilution, aliquots were added to Vero/TMPRSS2/ACE2 cells for 1 h in 96-well plates. Cells were washed, incubated for further 9 h, and fixed for Immunostaining (c) or RT-qPCR (d). In immunostaining, infected cells were visible as red spots and counted using an ImmunoSpot S6 Ultra-V reader and CTL analyser BioSpot® 5.0 software. Mean values±SD of three independent experiments.
as §1

[5] = tested on: Influenza A/Panama/2007/1999 (H3N2); type: cell-based, Influenza A virus; conditions: 1.0% NCT, within 5 min, plaque assay (FIG. 2A)
[6] = tested on: Influenza A/California/Swine Origin Virus/2009 (H1N1pdm); type: cell-based; conditions: 1.0% NCT
[7] = biological target: SARS-CoV-2 3C-like proteinase (Severe acute respiratory syndrome coronavirus 2, UniProt P0DTD1); test: Structural changes of 3C-like proteinase by NCT, mass spectrometry; type: biochemical; conditions: 1% NCT, 30 min, 37° C.
Text: FIG. 5 presents Chlorination of tyrosines and histidines and oxidation of methionines and cysteines of SARS-CoV-2 3C-like proteinase by NCT.
Seven methionines and four cysteines were oxidized.

[8] = after the end of an inhalation of 1.0% NCT, cited from earlier work
inoculated cell culture = test: MTT testing of cytotoxicity of inactivated NCT; type: cell-based; conditions: 0.1% NCT plus 0.1% met/his (inactivated NCT); PBS control 100.3±5.6
Text: The antiviral activity was concentration-dependent. […] This was valid for all tests and viruses in this study.

RSV long strain = type: cell-based, respiratory syncytial virus
[9] = cited from earlier work
SARS-CoV-2 [10] = test: Prophylaxis of contact persons with 1% NCT nose/throat spray; type: in vivo, human
Description: NCT may also be applied as nose/throat spray/rinse solution for prevention/prophylaxis of worsening or contagiousity to other persons. Even in case of low or no symptoms, 1% NCT aqueous solution may be used as a nose spray (two-three puffs (about 0.1 ml/puff) per nostril during forced nasal inspiration) and/or throat spray (three-four puffs (about 0.1 ml/puff) in the back of the mouth to the throat). Alternatively, 1% NCT aqueous solution may be used as a nasal rinse (10 ml to 20 ml instilled for 30 seconds up to 1 minute) and/or throat gargling solution (10 ml to 20 ml for 30 seconds up to 1 minute). This may be repeated at least two times per day or after close contact with other persons.
Spouse, person. (Day 7 of spouse's infection) dose time and symptoms: 2:10 PM—No symptoms 8:25 PM—No symptoms. (Day 8 of spouse's infection) dose time and symptoms: 2:40 PM—No symptoms 11:30 PM—No symptoms. (Day 9 of spouse's infection) dose time and symptoms: 11:10 AM—No symptoms 7:15 P. No symptoms.

SARS-CoV-2 [11] = type: in vivo, human
SARS-CoV-2 BavPat1 = test: Inactivation of SARS-CoV-2 by NCT, plaque titration; type: cell-based
Description: FIG. 1A presents inactivation of SARS-Cov-2 (BAvPat1) by NCT. Virus suspension (SARS-CoV-2 BavPat1) was incubated with 1.0% (55 mM) NCT, 0.1% (5.5 mM) NCT, 1.0% NCT with 5.0% peptone or PBS or 5.0% peptone for 5 min, 15 min, 30 min, or 60 min at 37° C., after which samples were diluted 1:1 in met/his solution for inactivation of NCT. Remaining infectious virus particles were determined using plaque titration. To control for inactivation of NCT by met/his, virus was added after dilution of 1.0% NCT with or without peptone in met/his. Mean values±SD of three to eight independent experiments in duplicates. The dotted line indicates the detection limit (0.84 log10). Data were statistically analyzed using a two-way ANOVA including a Dunnett's multiple comparison test to PBS controls. *p<0.05, **p<0.01, ***p<0.001, ****p<0.0001.
as §1, with “Exact incubation times of virus with NCT were ensured by adding met/his at the end of the incubation period, which inactivates NCT.” left out
With plaque assay readout, a significant reduction in infectious particles was detected after 15 min of incubation, when incubating SARS-CoV-2 with NCT in a buffered aqueous solution (FIG. 1A). […]

[12] = tested on: SARS-CoV-2, clinical isolate; test: Virus inactivation assay with RT-qPCR readout (SARS-CoV-2 E Gene); type: cell-based; conditions: 1% NCT, 37° C., RT-qPCR (FIG. 1D)
Description: as §2
FIG. 1D presents inactivation of SARS-Cov-2 by NCT. After cell lysis and RNA extraction, one-step RT-qPCR assay was performed using the iTaq™ RT-PCR (BIO-RAD) kit and previously published primers and probes specific for detection of the SARS-CoV-2 E Gene on a CFX96™ real-time system (BIO-RAD). Mean values±SD of genome copies of three independent experiments. Detection limit 2.10 log10 RNA copies/ml (dotted line).

[13] = in vivo; cited from earlier work

Compound: Cl.N [Ammonium chloride, ammonium chloride, reference compound]
- antiviral effect ([1]; ammonium chloride alone, up to 10 min incubation time): no antiviral effect

Compound: O=S(=O)(O)CCNCl [NCT, N-chlorotaurine]
- incubation time after which a significant reduction of infectious virus particles occurred [2]: 5 min
- course of disease during treatment (SARS-CoV-2 [3]; another 20 hospitalized patients, same treatment): no progression of the disease and lung failure was avoided
- outcome on leaving the hospital (SARS-CoV-2 [3]; eight hospitalized patients, 3 ml 1% NCT sodium inhaled 3 times a day for 1 week to 9 days via nebulizer): symptom-free or largely symptom-free
- reduction of infected cells ([4]; after 1 min (not significant, p=0.085)): 50%
- reduction of infected cells ([4]; after 5 min): 20-80%
- reduction of infected cells ([4]; after 7 min): 81-91%
- reduction of infected cells ([4]; after 10 min): 81-97%
- reduction of infected cells ([4]; after 20 min): 96-99%
- reduction of infected cells ([4]; after 30 min): > 99%
- log10 reduction of virus [5]: 2 log10
- time to reduction to the detection limit [6]: ≤ 1 min
- log10 reduction of virus ([6]; within 1 min, plaque assay (FIG. 2B)): 6 log10
- cysteines oxidized [7]: four
- histidines chlorinated [7]: two
- methionines oxidized [7]: Seven
- tyrosines chlorinated [7]: 3
- further time until active chlorine vanishes completely ([8]; after decrease to traces): 10 min
- time for concentration of active chlorine to decrease to traces [8]: ≤ 1 min
- effect of addition of ammonium chloride (NH4Cl) on activity against influenza viruses ([1]; 0.1% NCT plus 0.1% ammonium chloride versus 0.1% NCT (FIG. 2D)): significantly enhanced
- time to reduction to the detection limit ([1]; 1.0% NCT): ≤ 1 min
- log10 reduction of virus ([1]; 1.0% NCT, within 1 min, plaque assay (FIG. 2C)): 6 log10
- MTT reduction (inoculated cell culture): 94.1±8.5
- incubation time to significant titre reduction (RSV long strain; 0.1% NCT, 37° C.): 15 min
- infectious RSV measurable (RSV long strain; 1.0% NCT, after 15 minutes): Almost no detectable amount of infectious RSV
- log10 decrease of infectious virus titre (RSV long strain; 1.0% NCT, within 5 minutes, 37° C. (FIG. 3)): 4 log10
- systemic distribution ([9]; human, in vivo): not distributed systemically
- adverse effects ([9]; inhaled NCT, humans, phase I, chlorine taste and occasional tickle in the throat): Only minor and transient adverse effects
- infection status of family members (SARS-CoV-2 [10]; Example 2: wife and three teenagers in the same home, 1% NCT nose and throat spray 3 times daily): remained negative
- symptoms of spouse (SARS-CoV-2 [10]; Example 4: spouse, Day 7 to Day 9 of husband's infection): No symptoms
- infection status of persons with close contact to COVID-19 positive persons (SARS-CoV-2 [10]; several cases, use of the 1% NCT nasal spray): remained negative
- PCR of nose and throat smear, positive after cycles (SARS-CoV-2 [11]; Example 1 patient, Day 0, two hours after start of 1% NCT nasal spray and gargling): 30-32 cycles
- PCR of throat/nostril swab, positive after cycles (SARS-CoV-2 [11]; Example 1 patient, Day 3, after 1% NCT therapy was stopped): 25 cycles
- complaints (SARS-CoV-2 [11]; Example 1 patient, Day 4 to Day 11, after 1% NCT therapy Day 0 to Day 2): no complaints
- PCR of nose-throat smear, positive after cycles (SARS-CoV-2 [11]; Example 1 patient, Day 6): 27 cycles
- throat and nasal smear control PCR, weakly positive after cycles (SARS-CoV-2 [11]; Example 1 patient, Day 13 (max cycle number 45)): 36.5 cycles
- throat and nasal smear control PCR (SARS-CoV-2 [11]; Example 1 patient, Day 19): negative
- swab PCR ct value (SARS-CoV-2 [11]; Example 2 patient, Day 1 evening, two hours after dosing, 14 cycles before NCT treatment): 20-22 cycles
- swab result (SARS-CoV-2 [11]; Example 2 patient, after 10 days quarantine): swab negative
- swab PCR ct value (SARS-CoV-2 [11]; Example 2 patient, evening of day 4, 1% NCT nose spray and gargling 3× daily): 31-34 cycles
- swab PCR ct value (SARS-CoV-2 [11]; Example 2 patient, morning of Day 6, 14 hours after the last dosing of NCT): 31-34 cycles
- symptoms (SARS-CoV-2 [11]; Example 4 patient, Day 10, 1% NCT nasal and throat spray since Day 4): No symptoms
- incubation time after which a significant reduction of infectious virus particles occurred (SARS-CoV-2 BavPat1; 1.0% NCT in the presence of 5.0% peptone, 37° C. (FIG. 1A)): 5 min
- incubation time after which a significant reduction in infectious particles was detected (SARS-CoV-2 BavPat1; NCT in buffered aqueous solution, 37° C., plaque assay (FIG. 1A)): 15 min
- reduction of genome copies [12]: highly significant reduction of genome copies

Compound: Cc1ccc(S(=O)(=O)[N-]Cl)cc1.[Na+] [chloramine T]
- effects after inhalative application [13]: asthmatic and inflammatory symptoms
